Data on 82 molecules can be found in article PMC12040169 (PLOS Biology, 2025).

A word on the viability: it is a read-out of living cells in per cent, often relative to untreated cells.

The series can be described thus: in vitro. Conditions: human, hela cells, % viability.
Turning to `O=C(NC(c1ccc2c(c1)CCO2)C1CC(O)C1)c1cccc(=O)[nH]1` (stereo not shown) [CBK307463], the viability at 28.5 h, 10 µM was 86.2%. Next, `COCCC1CN(c2nc(N(C)C)nc3c2CCN(C(C)=O)C3)CCO1` (stereo not shown) [CBK307464]: 82.2%; `Cc1ccccc1N1CCC(CNC(=O)CCn2nc(C)c(C)c2C)C1` (stereo not shown) [CBK307465]: 87.7%; `CSc1nnc(CC2CCN(C(=O)c3cc(C)c(C)cc3C)CC2)n1C` [CBK307467]: 99%. Regarding `CC(=O)N1CCOC(CNc2nc(C(C)(C)C)nc3c2cnn3C)C1` (stereo not shown) [CBK307469], the viability at 28.5 h, 10 µM stood at 89.4%. Turning to `CC(=O)c1cc(CN(C)C(C)c2ccncn2)cs1` (stereo not shown) [CBK307470], the viability at 28.5 h, 10 µM turned out to be 85.5%. Regarding `Cn1c(N2CC[C@H](O)C2)nc2cc(C(=O)NCc3ccsc3)ccc21` [CBK307471], the viability at 28.5 h, 10 µM came to 87.5%. Turning to `Cc1cnc2c(Cl)c(C(=O)N3CCC4(CCCNC4)C3)nn2c1` (stereo not shown) [CBK307472], the viability at 28.5 h, 10 µM stood at 116%. Next, `O=C(NCc1csc2c1CCCC2)N1CCC(CO)CC1` [CBK307476]: 98.9%; `Cn1ccnc1CNC(=O)N1CCCC(C(=O)c2cccc(Cl)c2)C1` (stereo not shown) [CBK307479]: 105%; `O=c1cc(N2CCCCC2)cnn1Cc1nccn1C1CC1` [CBK307484]: 89.6%. With `Cn1cnnc1SCCNC(=O)N1CCCN(Cc2cccs2)CC1` [CBK307485] the figure was 94%; with `O=C(c1ccc2c(c1)CCCO2)N(Cc1ccccn1)CC1CCCO1` (stereo not shown) [CBK307488], 84.9%; with `CN(C)Cc1nc(C(=O)N2CCn3nc(C(O)C4CC4)cc3C2)cs1` (stereo not shown) [CBK307489], 101%.

As to `Cn1nnc2cc(NC(=O)NCc3csc(N4CCOCC4)n3)ccc21` [CBK307492], the viability at 28.5 h, 10 µM turned out to be 94.2%. With `CCN(C)C(=O)c1cn2cc(-c3cc(C)oc3C)n(C)c(=O)c2n1` [CBK307494] the figure was 94.9%; with `COCc1nc(NCCn2c(C)cc(C)nc2=O)cc(C2CCOC2)n1` (stereo not shown) [CBK307495], 92.6%; with `Cc1nc(C)n(CCCNc2cc(C(C)C)nc3ccnn23)n1` [CBK307497], 79.7%. With `O=C(NCc1csc2c1CCCC2)N1CC(c2ccccn2)C1` [CBK307499] the figure was 100%; with `CCOc1ccc(Cl)cc1CN(C)C(=O)NCC(C)CN(C)C` (stereo not shown) [CBK307500], 121%; with `CN(C)c1nc2c(c(-c3cncc(N)c3)n1)CCCC2` [CBK307503], 105%. Next, `COc1ccccc1CC(=O)N(Cc1cccnc1)C[C@@H]1CCC(=O)N1` [CBK307504]: 95.7%; `COc1c(C)cc(-c2nc(C)nc(C)c2C)cc1C` [CBK307506]: 96.7%. For `CNC(=O)CCc1ccccc1NC(=O)NCc1cnc(SC)n1C` [CBK307507], the viability at 28.5 h, 10 µM was found to be 101%. With `Cc1nc2cc(OCc3nc(C(=O)NCC4CCOC4)co3)ccc2s1` (stereo not shown) [CBK307508] the figure was 86.1%; with `COCCNc1nc2c(c(N3CCSCC3)n1)CCNCC2` [CBK307510], 111%. Next, `Cn1ncc2c(NCCN3CCOC3=O)nc(C(C)(C)C)nc21` [CBK307511]: 75.3%; `CC(=O)c1ccc(-c2cc(F)cc3c2OC(CN)C3)s1` (stereo not shown) [CBK307513]: 54.2%. Next, `CC(NC(=O)C1(Cn2ccnc2)CC1)c1nc(-c2ccccn2)no1` (stereo not shown) [CBK307514]: 107%; `CCN(CCO)C(=O)c1cccc(-c2cnn(C(F)F)c2C)c1` [CBK307519]: 95.5%; `CC(C)OCC(=O)NC1CCCc2nc(N3CCC(CO)CC3)ncc21` (stereo not shown) [CBK307520]: 94.5%. With `Cc1ccc(CN2CCC(CN(C)C(=O)c3cc4sccc4[nH]3)CC2)o1` [CBK307522], the viability at 28.5 h, 10 µM came out at 102%. In the case of `CSCCN(C)c1nc2c(c(=O)[nH]1)Cc1ccccc1OC2` [CBK307523], the viability at 28.5 h, 10 µM turned out to be 100%.

For `COc1ccc(CN2CC=CC2C(=O)O)cc1Cn1cncn1` (stereo not shown) [CBK307524], the viability at 28.5 h, 10 µM was 76.2%. In the case of `CCCCSc1nc(N)cc(N2CCC(N3CCCC3=O)CC2)n1` [CBK307525], the viability at 28.5 h, 10 µM was 108%. With `CN(C)S(=O)(=O)NC1CC(C)(C)Cc2c1cnn2-c1ccccc1` (stereo not shown) [CBK307533] the figure was 94.5%. Next, `O=C1CCCN1CCC1CCN(c2nccc(CCC(F)(F)F)n2)CC1` [CBK307534]: 90.1%. Regarding `CCC1C=CCN1S(=O)(=O)c1cccc(C(=O)NCc2cnn(C)c2)c1` (stereo not shown) [CBK307536], the viability at 28.5 h, 10 µM was determined as 96.4%.

As for `CCC(=O)Oc1ccc(C(=O)N2CCN(c3ccccc3F)CC2)cc1` [CBK307538], the viability at 28.5 h, 10 µM was 103%. Next, `Cc1ccc(OC2(C(=O)N3CCCC3c3nccs3)CCNCC2)cc1` (stereo not shown) [CBK307539]: 94.6%; `CCSc1nc(=O)c2c(n1C)NC(=O)CC2c1ccccc1` (stereo not shown) [CBK307541]: 107%; `CCSc1nc(=O)c2c(n1C)NC(=O)CC2c1ccc(OC)cc1` (stereo not shown) [CBK307542]: 89.9%.

Consider `Cc1n[nH]cc1CN(C)c1cc([C@H]2C[C@@H](N)C2)nc(C2CC2)n1` [CBK307544], for which the viability at 28.5 h, 10 µM amounted to 110%. Consider `CCc1ccc(NC(=O)CN2CCN(c3ccccc3F)CC2)cc1` [CBK307549], for which the viability at 28.5 h, 10 µM was determined as 112%.

Consider `CC1CCc2c(sc(NC(=O)CCC(=O)O)c2C(=O)N2CCOCC2)C1` (stereo not shown) [CBK307550], for which the viability at 28.5 h, 10 µM stood at 94.1%. On to `CCCn1cnnc1C(C)NC(=O)N(C)Cc1nc2cccc(C)c2[nH]1` (stereo not shown) [CBK307551], for which the viability at 28.5 h, 10 µM amounted to 112%. Next, `Cc1nc(NCCc2cnc(=O)n(C)c2O)cc(C2CCOC2)n1` (stereo not shown) [CBK307559]: 93.2%; `Cc1ccccc1-c1noc(CNC(Cn2ccnc2)C(C)C)n1` (stereo not shown) [CBK307560]: 89.1%. With `Cc1c(C)n(Cc2ccco2)c2ncnc(NCCCC(=O)O)c12` [CBK307562] the figure was 90.7%; with `Cc1c(C)n(Cc2ccco2)c2ncnc(NCC(=O)O)c12` [CBK307563], 101%. Next, `CCOC(=O)c1cn([C@H]2CC[C@H](O)CC2)cc(Oc2ccccc2)c1=O` [CBK307565]: 108%; `COCCn1c(=O)c2c(nc3oc(C(C)(C)C)cn32)n(C)c1=O` [CBK307566]: 96.7%. For the molecule `CSCCC(Nc1ncnc2c1c(C)c(C)n2Cc1ccco1)C(=O)O` (stereo not shown) [CBK307568], the viability at 28.5 h, 10 µM turned out to be 92.3%. Take `O=C(Nc1ccc2c(c1)nc1n2CCOC1)C1CCCCC1` [CBK307570]: the viability at 28.5 h, 10 µM was found to be 90%.

Turning to `Cc1cc(=O)n2c3c(cc(S(=O)(=O)NC4CC4)cc13)CCC2` [CBK307572], the viability at 28.5 h, 10 µM is 87%. With `Cc1cc(C)n(CC(C)C(=O)Nc2cccnc2)n1` (stereo not shown) [CBK307573] the figure was 97.5%; with `Cc1nnc(CCNC2CCN(c3ncnc4c(C)csc34)CC2)s1` [CBK307574], 84.9%; with `COc1ccc(CNC(=O)c2cc(S(=O)(=O)N3CCOCC3)cs2)cc1` [CBK307577], 95.7%.

In the case of `COc1ccc(CNC(=O)c2cc(S(=O)(=O)N(C)C)cs2)cc1` [CBK307579], the viability at 28.5 h, 10 µM amounted to 87.1%.

As for `CCN1CCN(C(=O)CCNC(=O)c2cccc(OC)c2)CC1` [CBK307580], the viability at 28.5 h, 10 µM worked out at 96.6%. `CCCN1CC(NS(=O)(=O)c2cc(OC)c(Cl)cc2OC)CC1=O` (stereo not shown) [CBK307581]: the viability at 28.5 h, 10 µM turned out to be 96.7%. For `CCn1c(CC2CCN(C(=O)CCn3cc(C)cn3)CC2)nn(C)c1=O` [CBK307584], the viability at 28.5 h, 10 µM was 89.7%. Take `CCOC(=O)c1c(NC(=O)NCc2cccnc2)sc2c1CCC2` [CBK307585]: the viability at 28.5 h, 10 µM came out at 87.3%. Next, `COc1ccc(CNC(=O)c2cc(S(=O)(=O)N(C)C)ccc2OC)cc1` [CBK307586]: 85.1%; `CCN(CCn1cccn1)c1nc2nonc2nc1NC1CCCC1` [CBK307589]: 106%.

`Cn1c(=O)oc2ccc(C(=O)NCCN3CCCCC3CO)cc21` (stereo not shown) [CBK307594]: the viability at 28.5 h, 10 µM came out at 78%. As for `Cc1cc(=O)n2c3c(cc(S(=O)(=O)NCC4CCCO4)cc13)CC2` (stereo not shown) [CBK307595], the viability at 28.5 h, 10 µM came out at 103%. For the molecule `O=C(NCCCn1ccnc1)C1CCN(C(=O)c2cccc(Cl)c2)CC1` [CBK307596], the viability at 28.5 h, 10 µM is 116%. Turning to `CN(Cc1nnc(-c2ccc(C(C)(C)C)cc2)o1)C(=O)C1CCCO1` (stereo not shown) [CBK307597], the viability at 28.5 h, 10 µM stood at 106%. With `O=C(O)C1(Oc2ccc3ncccc3c2)CCN(Cc2ccoc2)CC1` [CBK307598] the figure was 90.9%; with `CN1CCOCC(CNC(=O)c2ccc(-c3ccccc3CO)cc2)C1` (stereo not shown) [CBK307601], 91.1%.

For `OC(Cc1ccccc1)c1cc2n(n1)CCN(Cc1ccsc1)C2` (stereo not shown) [CBK307603], the viability at 28.5 h, 10 µM amounted to 89.5%. Regarding `CCOC(=O)c1cnc2ccc(Cl)cc2c1NC` [CBK307605], the viability at 28.5 h, 10 µM amounted to 71.1%.

In the case of `CC(C(=O)Nc1ccc(S(N)(=O)=O)cc1)N1Cc2ccccc2C1=O` (stereo not shown) [CBK307607], the viability at 28.5 h, 10 µM came out at 82.8%.

For `COc1ccc2c(c1)CCN(C(=O)C1CCc3nn(C)c(=O)n3C1)C2` (stereo not shown) [CBK307613], the viability at 28.5 h, 10 µM came out at 93.3%. On to `COCCNC(=O)c1cc2n(n1)C(C(F)(F)F)CC(c1cccs1)N2` (stereo not shown) [CBK307614], for which the viability at 28.5 h, 10 µM was found to be 113%. On to `COc1ccccc1CCNC(=O)N1CCC(Oc2cccnc2)CC1` [CBK307615], for which the viability at 28.5 h, 10 µM came out at 106%. For the molecule `Cc1cc(C)n(-c2ccc3nnc(CCC(=O)Nc4nccs4)n3n2)n1` [CBK307617], the viability at 28.5 h, 10 µM stood at 96.8%.

`Cc1nc(O)cc(C2CCN(C(=O)c3csc4c3CCCC4)CC2)n1` [CBK307618]: the viability at 28.5 h, 10 µM stood at 104%. As for `Cc1ccc2c(c1)OC(C)(C)CC2NS(C)(=O)=O` (stereo not shown) [CBK307620], the viability at 28.5 h, 10 µM was found to be 81.5%. With `Cc1ccc2c(c1)OC(C)(C)CC2NC(=O)C1CCN(C)CC1` (stereo not shown) [CBK307626] the figure was 110%; with `CCn1cc(C(=O)Nc2nccs2)c(=O)c2ccc(C)nc21` [CBK307628], 78.3%.
